Source: patent publication US20240369576A1, “ASSAYS FOR ALPHA-DYSTROGLYCAN GLYCOSYLATION AND METHODS FOR USING SAME” (ML Bio Solutions Inc., priority 2023, published 2024)
Entries after “also recorded” stand apart in the source; their conditions may differ.

Tests used:
[1] = test system: serum creatine kinase (CK); assay: Open label Phase 2 study of ribitol in LGMD2I/R9: serum creatine kinase; assay type: in vivo, human
Text: (§1) Methods: This study is an open label dose escalation study of patients with LGMD2I/R9. Part 1 of the study involved three dose cohorts (6 g QD, 6 g BID and 12 g BID) treated for 3 months. During Parts 2 (target maximal dose) and 3 (ongoing OLE), all patients received 12 g BID, dose adjusted for lower weight. FIG. 17 schematically illustrates the details of the clinical study. Briefly, the study includes 3 parts: a 90 day dose escalation phase (Part 1), a 90 day maximum dose phase (Part 2), and a 24 month long term extension phase (Part 3). In Part 1, 14 total patients are studied across three cohorts (6 g QD, 6 g BID, and 12 g BID ribitol). After Part 1, all patients transition to the highest dose, 12 g BID ribitol. Dosing adjustments in Part 2 were as follows: for patients with weight >70 kg: 12 g BID; for patients with weight between 50-70 kg: 9 g BID; and for patients with weight between 30-50 kg: 6 g BID. Dosing adjustments in Part 3 were as follows: for patients with weight >50 kg: 12 g BID; and for patients with weight between 30-50 kg: 9 g BID. Key endpoints for the study include NSAD; 10 or 100 meter walk test; FVC; PUL2.0; glycosylated αDG levels; and serum creatine kinase (CK).

[2] = test system: alpha-DG glycosylation in LGMD2I mouse models; details: cited from earlier work
patients with LGMD2I/R9 [3] = assay: Open label Phase 2 study of ribitol in LGMD2I/R9: safety and tolerability; assay type: in vivo, human
Text: Objectives: The Phase 2 study is intended to explore the safety and tolerability of ribitol. Additionally, the feasibility and usefulness of clinical efficacy and pharmacodynamic (PD) assessments in patients with LGMD2I receiving ascending doses of ribitol will be investigated.
Methods: This study is an open label dose escalation study of patients with LGMD2I/R9. Part 1 of the study involved three dose cohorts (6 g QD, 6 g BID and 12 g BID) treated for 3 months. During Parts 2 (target maximal dose) and 3 (ongoing OLE), all patients received 12 g BID, dose adjusted for lower weight.
FIG. 17 schematically illustrates the details of the clinical study. Briefly, the study includes 3 parts: a 90 day dose escalation phase (Part 1), a 90 day maximum dose phase (Part 2), and a 24 month long term extension phase (Part 3). In Part 1, 14 total patients are studied across three cohorts (6 g QD, 6 g BID, and 12 g BID ribitol). After Part 1, all patients transition to the highest dose, 12 g BID ribitol. Dosing adjustments in Part 2 were as follows: for patients with weight >70 kg: 12 g BID; for patients with weight between 50-70 kg: 9 g BID; and for patients with weight between 30-50 kg: 6 g BID. Dosing adjustments in Part 3 were as follows: for patients with weight >50 kg: 12 g BID; and for patients with weight between 30-50 kg: 9 g BID.
Key inclusion criteria for the study include age between 12-55 years at enrollment; genetically confirmed LGMD2I/R9 diagnosis; body weight of at least 30 kg; and ability to complete a […] walk test in <12 seconds unaided for moderate disease, or unable to complete the 10MWT for severe disease.

patients with LGMD2I/R9 [4] = assay: Open label Phase 2 study of ribitol in LGMD2I/R9: ambulatory and clinical measures (NSAD, 10MWT, 100MTT); assay type: in vivo, human; details: following 15 months of ribitol treatment, vs natural history decline
Text: as §1, with “Key inclusion criteria for the study include age between 12-55 years at enrollment; genetically confirmed LGMD2I/R9 diagnosis; body weight of at least 30 kg; and ability to complete a […] walk test in <12 seconds unaided for moderate disease, or unable to complete the 10MWT for severe disease. Key” for “Key”

[5] = test system: αDG glycosylation in P448L mutant FKRP mice; assay: Multiplexed Western blot of total and glycosylated αDG in muscle of P448L mutant FKRP mice treated with 5% Ribitol; assay type: in vivo, mouse; details: 5% Ribitol treated P448L mice vs untreated P448L mice, heart muscle and TA lysates
Description: Murine Mouse Tissue: Murine muscle tissue samples from healthy, [MUT], and […] mutant mice were stored at -80° C. until analysis. Tissue Processing: Tissue samples were processed using a TissueLyzer IITM (Qiagen®). Approximately 250 milligrams (mg) of tissue was placed in a 2 mL microtube with a steel bead and 1 mL of Radioimmunoprecipitation assay buffer (RIPA) buffer supplemented with protease and phosphatase inhibitors. The microtubes were subjected to three cycles of disruption (2 minutes at 25 Hertz (Hz)) in the TissueLyzer IITM. Lysates were clarified by centrifugation and the supernatant was transferred to fresh tubes and protein concentration in lysate was determined using a BCA assay (Pierce®). […] The membrane was visualized on an Odyssey CLxTM imager (LiCorTM) and intensities of the 700 and 800 nm channels were recorded. […] Signal intensities were normalized to total protein and the ratio of 700 nm normalized signal/800 nm normalized signal was determined. Linear fits were assessed where applicable using the linear regression function of PrismTM. Statistical significance was determined using an unpaired t-test using PrismTM (e.g., using the p-value for the parameters slope and intercept). StainFree gel image is quantitated using ImageLabTM software to analyze the image from the ChemiDocTM Imaging System. […] Linear fits were assessed were applicable using a linear regression function. […]

glycosylated αDG = assay: Open label Phase 2 study of ribitol in LGMD2I/R9: glycosylated αDG in tibialis anterior biopsies by Western blot; assay type: in vivo, human
Description: Tissue Lysis and sample preparation: Tissue samples were processed in lysis buffer, supplemented with protease inhibitors. Total protein in lysate was determined by BCA (Thermo Fisher) for RIPA and protein 660 kit (Thermo Fisher) for SDS-Urea and tested at 60 μg for CP Heterozygous samples and 40 μg for Homozygous samples. Differential protein loading is used for different patients to compensate for patient deficits in glycosylated αDG. […] Loading additional protein helps compensate for this deficiency and allows the assay to detect lower-level ranges. This is further stratified by patient genotype: more severe patients require greater protein loading. Western Blotting: For detection of target proteins αDG-Total and αDG-Glycan, membrane was probed simultaneously with primary antibodies AF6868 alpha Dystroglycan (R&D Systems) and IIH6C4 alpha Dystroglycan (Millipore), followed by fluorescent secondary antibodies IR800CW Mouse Anti-Sheep and IR680 Goat Anti-Mouse secondary antibodies (LiCor). The membrane was visualized in Odyssey CLx imager (LiCor) and intensities of the 700 (αDG-Glycan, red bands) and 800 (αDG-Total, green bands) nm channels were recorded. […] Here, amounts of glycosylated and total αDG are determined using standard curves, and an interpolated ratio is computed by dividing the amount of glycosylated αDG to the amount of total αDG. Data Analysis: Integration boxes were drawn using Image Studio software with specific dimensions over molecular weight range for standards, test articles and control samples. Data analysis was done in Excel (Microsoft). […] Healthy positive control (HPC) at 10 μg was deployed to monitor assay performance. […] FIG. 12 schematically illustrates a workflow for the Western Blot method. Briefly, biopsies are collected from a subject at a desired timepoint and homogenized. Gel electrophoresis is performed, followed by membrane transfer and blocking. Sample is incubated with the primary antibody followed by the secondary antibody. Detection and analysis are subsequently performed. […] A broader region of 70-260 kDa was used in prior iterations of the assay, including that described in Example 2 herein. […] Multiple sections of a single healthy donor TA biopsy sample are homogenized and the resulting lysate is pooled together and stored in single use aliquots at −80° C. These aliquots are used to generate a standard curve which is used in every assay. In addition, a quality control of 10 μg lysate is used to assess assay performance by measuring interpolatability to the standard curve. Methods: This study is an open label dose escalation study of patients with LGMD2I/R9. Part 1 of the study involved three dose cohorts (6 g QD, 6 g BID and 12 g BID) treated for 3 months. During Parts 2 (target maximal dose) and 3 (ongoing OLE), all patients received 12 g BID, dose adjusted for lower weight. FIG. 17 schematically illustrates the details of the clinical study. Briefly, the study includes 3 parts: a 90 day dose escalation phase (Part 1), a 90 day maximum dose phase (Part 2), and a 24 month long term extension phase (Part 3). In Part 1, 14 total patients are studied across three cohorts (6 g QD, 6 g BID, and 12 g BID ribitol). After Part 1, all patients transition to the highest dose, 12 g BID ribitol. Dosing adjustments in Part 2 were as follows: for patients with weight >70 kg: 12 g BID; for patients with weight between 50-70 kg: 9 g BID; and for patients with weight between 30-50 kg: 6 g BID.

[6] = maximum change over 3-15 months of treatment, FIG. 19

OC[C@@H](O)[C@@H](O)[C@@H](O)CO [ribitol, (2R,3S,4S)-Pentane-1,2,3,4,5-pentol]
change in serum CK ([1]; after 3 months of treatment, FIG. 20): notable change | sustained reduction in serum creatine kinase (CK) ([1]; over 15 months of ribitol treatment): > 75% | alpha-DG glycosylation [2]: increase | adverse events leading to discontinuation or interruption in therapy (patients with LGMD2I/R9 [3]; 15 months of treatment): No adverse event led to a discontinuation or interruption in therapy | diarrhea, possibly or probably treatment-related (patients with LGMD2I/R9 [3]; 75% grade 1, 25% grade 2): 6 incidents | treatment-related serious adverse events, dose limiting toxicities or discontinuations (patients with LGMD2I/R9 [3]; across a range of ribitol dose levels): no observed treatment-related serious adverse events, dose limiting toxicities or discontinuations | nausea, possibly or probably treatment-related (patients with LGMD2I/R9 [3]; both grade 1): 2 incidents | vomiting, possibly or probably treatment-related (patients with LGMD2I/R9 [3]; both grade 1): 2 incidents | adverse events possibly or probably related to ribitol treatment (patients with LGMD2I/R9 [3]; during the course of the study): 12 | adverse events recorded (patients with LGMD2I/R9 [3]; during the course of the study, 14 patients): 136 | dehydration, possibly or probably treatment-related (patients with LGMD2I/R9 [3]; grade 1): 1 incident | dyspepsia, possibly or probably treatment-related (patients with LGMD2I/R9 [3]; grade 1): 1 incident | gastroenteritis, possibly or probably treatment-related (patients with LGMD2I/R9 [3]; grade 2): 1 incident | headaches, possibly or probably treatment-related (patients with LGMD2I/R9 [3]; grade 2): 1 incident | tolerability (patients with LGMD2I/R9 [3]; over 15 months of treatment): well-tolerated; also recorded: well tolerated | severe adverse events (patients with LGMD2I/R9 [3]; unrelated to the treatment): 3 | 10MWT velocity (patients with LGMD2I/R9 [4]): improvements | 100MTT (patients with LGMD2I/R9 [4]): improvements | NSAD (patients with LGMD2I/R9 [4]): improvements | 10MWT velocity (patients with LGMD2I/R9 [4]; listed as Ribitol): improvement | 100MTT (patients with LGMD2I/R9 [4]; listed as Ribitol): improvement | NSAD (patients with LGMD2I/R9 [4]; listed as Ribitol): improvement | αDG expression (total αDG signal, ~50-250 kDa) ([5]; FIG. 6B): increased | ratio of glycosylated αDG to total αDG ([5]; FIG. 6C): increased | change in glycosylated αDG vs baseline (glycosylated αDG; LGMD2I/R9 patients, oral ribitol 6 g QD to 12 g BID, after 90 days, sustained over 15 months): approximate doubling; also recorded: approximately double | levels of glycosylated αDG at 3 months (glycosylated αDG; Phase 2, 3 months, sustained over 15 months): increased | change in glycosylated αDG by genotype (glycosylated αDG; both L276I homozygous and other FKRP genotype LGMD2I/R9 patients): Approximate doubling | patients with a ≥100% increase (doubling) in glycosylated αDG levels vs pre-treatment (glycosylated αDG; [6]): 10 of 14 | patients with increased glycosylated αDG levels vs pre-treatment baseline (glycosylated αDG; [6]): 13 of 14 | αDG glycosylation in LGMD2I/R9 muscle biopsies (glycosylated αDG; treatment with ribitol, FIGS. 13A-13B): dramatically increases
